Experimental findings from article PMC10611581, “Directed evolution unlocks oxygen reactivity for a nicotine-degrading flavoenzyme” (Nature Chemical Biology, 2023) are described below.

The target of data set [1] is T1, NicA2 (nicotine oxidoreductase) (Pseudomonas putida, UniProt F8G0P2).
T1 construct: expressed in E. coli BL21 (DE3) from pET28a-His-SUMO-nicA2, His-SUMO tag cleaved by ULP-1
T1 sequence (F8G0P2 39-482 limits assumed): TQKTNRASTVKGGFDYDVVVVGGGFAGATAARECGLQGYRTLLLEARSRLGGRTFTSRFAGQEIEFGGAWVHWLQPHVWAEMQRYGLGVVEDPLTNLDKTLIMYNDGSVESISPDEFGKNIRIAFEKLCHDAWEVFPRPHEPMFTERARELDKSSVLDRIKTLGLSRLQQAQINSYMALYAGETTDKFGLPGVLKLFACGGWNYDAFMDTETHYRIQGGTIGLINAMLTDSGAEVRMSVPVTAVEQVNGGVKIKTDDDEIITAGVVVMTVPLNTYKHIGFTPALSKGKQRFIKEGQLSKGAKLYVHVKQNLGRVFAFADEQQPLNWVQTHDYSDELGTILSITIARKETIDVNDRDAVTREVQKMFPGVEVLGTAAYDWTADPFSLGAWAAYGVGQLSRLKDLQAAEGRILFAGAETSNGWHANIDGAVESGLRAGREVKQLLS
The experiment in a line: bound flavin absorbance at […] nm; ThermoFAD. The format is binding. The following applies: co-purified bound cofactor.

Data set [2] deals with the molecule itself. The experiment in a line: crystal structure; hanging-drop vapor diffusion at 4 °C; NicA2 v321 ligand-free and with 20 mM NMM (sodium citrate pH 5.0, 18% PEG 6000), wild type with 2.3 mM NMM (0.2 M ammonium citrate pH 7.0, 20% PEG 3350); two molecules in the asymmetric unit.

As usually defined, the stoichiometry N is the number of molecules, sites or subunits per partner or assembly.

Consider `Cc1cc2nc3c(=O)[nH]c(=O)nc-3n(C[C@H](O)[C@H](O)[C@H](O)COP(=O)(O)OP(=O)(O)OC[C@H]3O[C@@H](n4cnc5c(N)ncnc54)[C@H](O)[C@@H]3O)c2cc1C` [flavin adenine dinucleotide], for which the “bound flavin absorbance at 450 nm; ThermoFAD” value in data set [1] is reported as “determined using the absorbance of bound FAD cofactor”.

B1: nicotine oxidoreductase (NicA2), wild type (enzyme, Pseudomonas putida S16, UniProt F8G0P2 39-482, looked up)
chain: TQKTNRASTVKGGFDYDVVVVGGGFAGATAARECGLQGYRTLLLEARSRLGGRTFTSRFAGQEIEFGGAWVHWLQPHVWAEMQRYGLGVVEDPLTNLDKTLIMYNDGSVESISPDEFGKNIRIAFEKLCHDAWEVFPRPHEPMFTERARELDKSSVLDRIKTLGLSRLQQAQINSYMALYAGETTDKFGLPGVLKLFACGGWNYDAFMDTETHYRIQGGTIGLINAMLTDSGAEVRMSVPVTAVEQVNGGVKIKTDDDEIITAGVVVMTVPLNTYKHIGFTPALSKGKQRFIKEGQLSKGAKLYVHVKQNLGRVFAFADEQQPLNWVQTHDYSDELGTILSITIARKETIDVNDRDAVTREVQKMFPGVEVLGTAAYDWTADPFSLGAWAAYGVGQLSRLKDLQAAEGRILFAGAETSNGWHANIDGAVESGLRAGREVKQLLS
notes: nicotine oxidoreductase NicA2 of Pseudomonas putida S16; crystallised with N-methylmyosmine (NMM); also called wild-type NicA2; WT; source: E. coli BL21 (DE3), purified (HisTrap, ULP-1 cleavage, HiTrap Q, Superdex 200)
In the case of B1, in data set [2], the “stoichiometry N” value came to 2.
